From patent US20230133958A1, “COMPOUNDS USEFUL IN MODULATING EGFR AND PI3K” (Mekanistic Therapeutics LLC, priority 2021, published 2023)

Experiments:
Format in all cases: cell-based
[1] = system: ACHN; assay: NCI COMPARE panel (SRB growth inhibition), ACHN; conditions: Homo sapiens, Renal Cancer, 48 h
Description: (§1) The human tumor cell lines of the cancer screening panel are grown in RPMI 1640 medium containing 5% fetal bovine serum and 2 mM L-glutamine. For a typical screening experiment, cells are inoculated into 96 well microtiter plates in 100 µL at plating densities ranging from 5,000 to 40,000 cells/well depending on the doubling time of individual cell lines. After cell inoculation, the microtiter plates are incubated at 37° C., 5% CO2, 95% air and 100% relative humidity for 24 h prior to addition of experimental drugs.
(§2) After 24 h, two plates of each cell line are fixed in situ with TCA, to represent a measurement of the cell population for each cell line at the time of drug addition (Tz). Experimental drugs are solubilized in dimethyl sulfoxide at 400-fold the desired final maximum test concentration and stored frozen prior to use. […]
(§3) Following drug addition, the plates are incubated for an additional 48 h at 37° C., 5 % CO2, 95% air, and 100% relative humidity. […] Bound stain is subsequently solubilized with 10 mM trizma base, and the absorbance is read on an automated plate reader at a wavelength of 515 nm. […] Using the seven absorbance measurements [time zero, (Tz), control growth, (C), and test growth in the presence of drug at the five concentration levels (Ti)], the percentage growth is calculated at each of the drug concentrations levels. Percentage growth inhibition is calculated as: […]

[2] = system: EKVX; assay: NCI COMPARE panel (SRB growth inhibition), EKVX; conditions: Homo sapiens, Non-Small Cell Lung Cancer, 48 h
Description: as §1, §2, §3

[3] = system: RPMI-8226; assay: NCI COMPARE panel (SRB growth inhibition), RPMI-8226; conditions: Homo sapiens; Leukemia, RPMI-8226, 48 h
Description: as §1, §2, §3

[4] = system: MOLT-4; assay: NCI COMPARE panel (SRB growth inhibition), MOLT-4; conditions: Homo sapiens; Leukemia, MOLT-4, 48 h
Description: as §1, §2, §3

[5] = system: NCI-H522; assay: NCI COMPARE panel (SRB growth inhibition), NCI-H522; conditions: Homo sapiens; Non-Small Cell Lung Cancer, NCI-H522, 48 h
Description: as §1, §2, §3

[6] = system: KM12; assay: NCI COMPARE panel (SRB growth inhibition), KM12; conditions: Homo sapiens; Colon Cancer, KM12, 48 h
Description: as §1, §2, §3

[7] = system: BT-549; assay: NCI COMPARE panel (SRB growth inhibition), BT-549; conditions: Homo sapiens; Breast Cancer, BT-549, 48 h
Description: as §1, §2, §3

[8] = system: HT29; assay: NCI COMPARE panel (SRB growth inhibition), HT29; conditions: Homo sapiens, HT-29; Colon Cancer, HT29, 48 h
Description: as §1, §2, §3

[9] = system: SF-539; assay: NCI COMPARE panel (SRB growth inhibition), SF-539; conditions: Homo sapiens; CNS Cancer, SF-539, 48 h
Description: as §1, §2, §3

[10] = system: OVCAR-8; assay: NCI COMPARE panel (SRB growth inhibition), OVCAR-8; conditions: Homo sapiens; Ovarian Cancer, OVCAR-8, 48 h
Description: as §1, §2, §3

SMILES | GI50 [1] [nM] | GI50 [2] [nM] | GI50 [3] [nM] | GI50 [4] [nM] | GI50 [5] [nM] | GI50 [6] [nM] | GI50 [7] [nM] | GI50 [8] [nM] | GI50 [9] [nM] | GI50 [10] [nM]
CS(=O)(=O)Nc1cc(-c2ccc3ncc(C#N)c(Nc4cccc(Cl)c4F)c3c2)cnc1Cl [Compound 10, N-[2-chloro-5-[4-(3-chloro-2-fluoro-anilino)-3-cyano-6-quinolyl]-3-pyridyl]methanesulfonamide] | > 250 | > 250 | ≤ 75 | 75 to 125 | > 250 | > 250 | ≤ 75 | > 250 | 125 to 250 | > 250
CS(=O)(=O)Nc1cc(-c2ccc3ncnc(Nc4cccc(Cl)c4F)c3c2)cnc1Cl [Compound 6, N-[2-chloro-5-[4-(3-chloro-2-fluoro-anilino)quinazolin-6-yl]-3-pyridyl] methanesulfonamide] | 125 to 250 | 75 to 125 | 125 to 250 | 125 to 250 | 125 to 250 | > 250 | 75 to 125 | 125 to 250 | 125 to 250 | > 250
